Assay results published in patent publication US20250353873A1, “COMPOUNDS AND METHODS FOR MODULATING APOE EXPRESSION” (Ionis Pharmaceuticals, Inc., priority 2024, published 2025).
Strand notation (5' to 3'): a small letter for the sugar, then the base; units joined by * are phosphorothioate-linked, units joined directly phosphodiester-linked; [ ] holds rarer units or linkages, { } end groups; capitals alone tell only the bases. [PN] = cyclic guanidine phosphoramidate internucleoside linkage; [ms] = mesyl phosphoramidate linkage; e = 2'-O-(2-methoxyethyl) (MOE); k = constrained ethyl (cEt); [5mC] = 5-methylcytosine; d = 2'-deoxy (DNA)

Columns and labels:
[1] = test system: human APOE RNA; assay: Duration of action study in APOE C57BL/6NTac-Apoeem7250 knock-in mice (Example 16); assay type: in vivo; settings: 300 μg ICV
Protocol: Modified oligonucleotides described above were tested in the APOE C57BL/6NTac-Apoeem7250 knock-in mouse model described above.
APOE C57BL/6NTac-Apoeem7250 knock-in mice were divided into groups of 2-4 mice each. Each mouse received a single intracerebroventricular (ICV) bolus of 300 μg of modified oligonucleotide. A group of 2-4 mice received a single ICV bolus with PBS as a negative control.
Mice were sacrificed at various timepoints as indicated in the table below and RNA was extracted from cortical brain tissue and spinal cord for quantitative real-time RT-PCR analysis of RNA expression of APOE using primer probe set RTS3073 (described herein above). APOE RNA levels were normalized to mouse Ppia. Mouse Ppia was amplified using primer probe set m_cyclo24 (described herein above). Results are presented as percent human APOE RNA relative to the amount of human APOE RNA in PBS treated animals, (% control). Each experiment is identified in separate tables below.

[2] = test system: human APOE RNA; assay: Dose-dependent inhibition of human APOE RNA in HepG2 cells, electroporation, 50,000 cells per well, RT-PCR normalized to GAPDH (Example 4, Tables 8-10); assay type: cell-based; settings: HepG2 cells, electroporation, Table 8
Summary of the method: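 Readout is percent APOE RNA versus untreated controls, measured by RT-PCR (primer probe set RTS3073) and normalized to human GAPDH. Modified oligonucleotides were delivered by electroporation at varying doses into HepG2 cells plated at 50,000 per well.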

[3] = test system: human APOE RNA; assay: Activity in APOE C57BL/6NTac-Apoeem7250 knock-in mice, single ICV bolus, 4 weeks (Example 10); assay type: in vivo; settings: single ICV bolus 300 μg, 4 weeks post treatment, normalized to mouse Ppia
Summary of the method: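 Human APOE RNA, quantified by real-time RT-PCR with RTS3073 and normalized to mouse Ppia, was read in cortical brain and spinal cord 4 weeks post dosing. Dosing was a single ICV bolus of 300 μg per knock-in mouse; values are % of PBS-treated animals.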

[4] = test system: human APOE RNA; assay: Activity in APOE C57BL/6NTac-Apoeem7250 knock-in mice, single ICV bolus, 8 weeks (Example 11); assay type: in vivo; settings: single ICV bolus 300 μg, 8 weeks post treatment, normalized to mouse Ppia
Summary of the method: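 Cortical and spinal cord human APOE RNA quantified by RT-qPCR 8 weeks after a single 300 μg ICV dose in knock-in mice, Ppia-normalized. Values are percent of levels in PBS-treated animals.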

[5] = test system: human APOE RNA; assay: Activity in APOE C57BL/6NTac-Apoeem7250 knock-in mice, single ICV bolus, 16 weeks (Example 12); assay type: in vivo; settings: single ICV bolus 300 μg, 16 weeks post treatment, normalized to mouse Ppia
Summary of the method: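 A single 300 μg intracerebroventricular dose was given, with PBS-treated mice as reference; cortical and spinal cord tissue was taken 16 weeks later. RT-qPCR quantified human APOE RNA, Ppia-normalized, expressed relative to PBS animals (% control).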

[6] = test system: human APOE RNA; assay: Activity in APOE C57BL/6NTac-Apoeem7250 knock-in mice, single ICV bolus, 20 weeks (Example 13); assay type: in vivo; settings: single ICV bolus 300 μg, 20 weeks post treatment, normalized to mouse Ppia
Summary of the method: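 Cortical and spinal cord RNA was assayed by real-time RT-PCR for human APOE, normalized to mouse Ppia and reported as percent of PBS controls. Tissue was taken twenty weeks after one 300 μg intracerebroventricular bolus in APOE knock-in mice, 4 per group.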

Substance | APOE RNA (% control) Cortex ([1]; 14 days post-dose) [% control] | APOE RNA (% control) Cortex ([1]; 112 days post-dose) [% control] | APOE RNA (% control) Spinal Cord ([1]; 14 days post-dose) [% control] | APOE RNA (% control) Spinal Cord ([1]; 112 days post-dose) [% control] | further results
1721310: 6-10-4 MOE gapmer CTTGGTGAATCTTTATTAAA, linkages s[pn][pn][pn]oossssssszzs[pn]ss (e[5mC]*eT[PN]eT[PN]eG[PN]eGeTdG*dA*dA*dT*d[5mC]*dT*dT*dT[ms]dA[ms]dT*eT[PN]eA*eA*eA) [compound 1721310] | 35 | 88 | 38 | 65 | 
1721306: 6-10-4 MOE gapmer TTGGTGAATCTTTATTAAAC, linkages s[pn][pn][pn]oosssssszzss[n]ss (as printed) (sugars from the 5' end e6 d10 e4, all C 5-methyl, backbone not given here; further chemistry not fully specified) [compound 1721306] | 58 | 89 | 63 | 60 | 
1721308: 6-10-4 MOE gapmer CTTGGTGAATCTTTATTAAA, linkages s[pn][pn][pn]oossssssszzsoss (e[5mC]*eT[PN]eT[PN]eG[PN]eGeTdG*dA*dA*dT*d[5mC]*dT*dT*dT[ms]dA[ms]dT*eTeA*eA*eA) [compound 1721308] | 48 | 85 | 45 | 42 | 
1778125: modified oligonucleotide complementary to human APOE RNA (eA*e[5mC]eTeTeGeG*dT*dG[ms]dA[ms]dA*dT*d[5mC]*dT*dT*dT*dA[ms]kTkT*eA*eA; antisense) [compound 1778125] |  |  |  |  | APOE RNA (% UTC) 5 nM ([2]; 24-hour treatment, 5 nM): 108 % UTC; APOE RNA (% UTC) 13 nM ([2]; 24-hour treatment, 13 nM): 100 % UTC; APOE RNA (% UTC) 33 nM ([2]; 24-hour treatment, 33 nM): 77 % UTC; APOE RNA (% UTC) 82 nM ([2]; 24-hour treatment, 82 nM): 74 % UTC; APOE RNA (% UTC) 205 nM ([2]; 24-hour treatment, 205 nM): 63 % UTC; APOE RNA (% UTC) 512 nM ([2]; 24-hour treatment, 512 nM): 39 % UTC; APOE RNA (% UTC) 1,280 nM ([2]; 24-hour treatment, 1,280 nM): 22 % UTC; APOE RNA (% UTC) 3,200 nM ([2]; 24-hour treatment, 3,200 nM): 17 % UTC; APOE RNA (% UTC) 8,000 nM ([2]; 24-hour treatment, 8,000 nM): 5 % UTC; APOE RNA (% UTC) 20,000 nM ([2]; 24-hour treatment, 20,000 nM): 3 % UTC; IC50 ([2]; reduction of human APOE RNA, 24-hour treatment): 320 nM; APOE RNA (% control) Cortex ([3]; cortex): 40 % control; APOE RNA (% control) Spinal Cord ([3]; spinal cord): 52 % control; APOE RNA (% control) Cortex ([4]; cortex): 59 % control; APOE RNA (% control) Spinal Cord ([4]; spinal cord): 37 % control; APOE RNA (% control) Cortex ([5]; cortex): 75 % control; APOE RNA (% control) Spinal Cord ([5]; spinal cord): 42 % control; APOE RNA (% control) Cortex ([6]; cortex): 81 % control; APOE RNA (% control) Spinal Cord ([6]; spinal cord): 49 % control
1721309: 6-10-4 MOE gapmer CTTGGTGAATCTTTATTAAA, linkages s[pn][pn][pn]oossssssssss[pn]ss (e[5mC]*eT[PN]eT[PN]eG[PN]eGeTdG*dA*dA*dT*d[5mC]*dT*dT*dT*dA*dT*eT[PN]eA*eA*eA) [compound 1721309] | 45 | 93 | 34 | 39 | 
1721304: 6-10-4 MOE gapmer TTGGTGAATCTTTATTAAAC, linkages s[pn][pn][pn]oosssssszzssoss (eT*eT[PN]eG[PN]eG[PN]eTeGdA*dA*dT*d[5mC]*dT*dT*dT[ms]dA[ms]dT*dT*eAeA*eA*e[5mC]) [compound 1721304] | 46 | 67 | 45 | 42 | 
